Values of other authors in patent US20040072765A1, “Cardiovascular and bone treatment using isoflavones” (Novogen Research Pty Ltd., priority 1999, published 2004).

Experiments:
[1] = low doses, rats
[2] = men and women

SMILES | cortical and trabecular bone density [1] | increase in HDL levels [2]
O=c1c(-c2ccc(O)cc2)coc2cc(O)cc(O)c12 [Genistein, genistein] | increased | 
CCOC(=O)C(C)(C)Oc1ccc(Cl)cc1 [clofibrinate] |  | about 10%
